Data set [1] addresses T1, angiotensin-I converting enzyme (ACE) (Rattus norvegicus, UniProt P47820).
T1 construct: The reaction was started by the addition of 40 μL rat lung extract; from tissue; host or cells: rat lung extract
T1 sequence (P47820 36-1313): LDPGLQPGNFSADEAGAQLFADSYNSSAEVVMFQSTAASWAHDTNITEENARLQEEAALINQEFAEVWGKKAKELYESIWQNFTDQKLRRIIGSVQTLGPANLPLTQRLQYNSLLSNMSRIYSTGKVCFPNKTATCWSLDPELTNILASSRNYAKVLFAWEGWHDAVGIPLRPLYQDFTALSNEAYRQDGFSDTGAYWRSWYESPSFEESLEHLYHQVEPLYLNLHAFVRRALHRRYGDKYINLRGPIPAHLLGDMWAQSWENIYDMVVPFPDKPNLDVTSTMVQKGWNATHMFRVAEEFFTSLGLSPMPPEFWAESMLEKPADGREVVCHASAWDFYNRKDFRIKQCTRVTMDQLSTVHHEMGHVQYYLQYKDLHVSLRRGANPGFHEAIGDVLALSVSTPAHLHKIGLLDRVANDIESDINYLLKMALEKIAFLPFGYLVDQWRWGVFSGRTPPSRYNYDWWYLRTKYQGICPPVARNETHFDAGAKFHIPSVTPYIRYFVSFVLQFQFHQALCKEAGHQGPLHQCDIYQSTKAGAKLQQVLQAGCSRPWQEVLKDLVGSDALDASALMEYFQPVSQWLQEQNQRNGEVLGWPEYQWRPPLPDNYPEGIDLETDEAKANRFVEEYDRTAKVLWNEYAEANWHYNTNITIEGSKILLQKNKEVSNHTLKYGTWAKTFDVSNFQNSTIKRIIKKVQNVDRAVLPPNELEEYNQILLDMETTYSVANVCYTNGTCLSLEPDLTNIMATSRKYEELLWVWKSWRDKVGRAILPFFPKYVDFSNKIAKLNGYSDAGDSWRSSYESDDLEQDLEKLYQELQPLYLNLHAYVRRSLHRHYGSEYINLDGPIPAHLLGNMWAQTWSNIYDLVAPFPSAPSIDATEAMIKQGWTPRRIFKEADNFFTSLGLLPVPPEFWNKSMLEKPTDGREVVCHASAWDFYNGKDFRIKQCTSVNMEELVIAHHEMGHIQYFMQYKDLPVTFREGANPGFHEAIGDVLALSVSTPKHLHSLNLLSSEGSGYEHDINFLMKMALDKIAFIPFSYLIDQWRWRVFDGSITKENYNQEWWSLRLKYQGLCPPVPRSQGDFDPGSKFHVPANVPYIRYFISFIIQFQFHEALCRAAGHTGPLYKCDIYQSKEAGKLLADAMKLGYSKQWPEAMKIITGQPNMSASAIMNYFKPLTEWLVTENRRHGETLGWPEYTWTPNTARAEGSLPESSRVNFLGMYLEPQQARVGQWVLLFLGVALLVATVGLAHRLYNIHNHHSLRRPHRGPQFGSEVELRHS
The data set can be described thus: In vitro angiotensin-I converting enzyme inhibitory activity, spectrophotometric assay with rat lung extract. In kind it is biochemical. Conditions: for inhibition at 0.0002 µM: 0.2 nM; for inhibition at 0.0004 µM: 0.4 nM; for inhibition at 0.0006 µM: 0.6 nM; for inhibition at 0.0008 µM: 0.8 nM; for inhibition at 0.001 µM: 1 nM; for IC50: ACE inhibition, rat lung extract. As to the method: This method is based on the cleavage of the substrate hippuryl-glycyl-glycine by ACE and subsequent reaction with trinitrobenzenesulfonic acid to form 2,4,6-trinitrophenyl-glycyl-glycine. The method relies on spectrophotometric determination of hippuric acid. It involves a colorimetric reaction of hippuric acid with benzene sulfonyl chloride.
The assay system consisted of 200 μL of substrate solution, water, and drug solution in a volume of 0.25 mL. The reaction was started by the addition of 40 μL rat lung extract. After 30 minutes of incubation at 37°C, the reaction was stopped by adding 2 mL of stop solution (1.195 g HEPES and 0.0465 g of EDTA were dissolved in 40 mL distilled water. The pH was adjusted to 9.0 with 1 mol/lit sodium hydroxide and diluted to 50 mL with distilled water). Then 0.5 mL distilled water and 1.0 mL colour reagent were added, mixed vigorously, left for 5 min, and centrifuged at 3000–4000 rpm for 10 minutes at room temperature to remove any precipitate. The corresponding enzyme inhibitors blanks were assayed in the same manner except for adding the stop solution before the lung extract. The absorbance of the yellow product of the reaction between liberated hippurate and cyanuric chloride was measured spectrophotometrically at 405 nm against distilled water as blank.Controls without drug were run simultaneously in all cases. “One inhibitory unit is the amount of inhibitor that suppressed the ACE activity by one unit.”

For data set [2] the following is noted: background statement; cited from earlier work.
The next data set concerns ACE. Conditions: background statement; cited from earlier work.
The mark [3] stands for this setting: read-out: Percent inhibition of ACE.

For the molecule `O=C(O)C1Cc2ccccc2CN1C(=O)CP(=O)(O)CCCCc1ccccc1` (stereo not shown) [Analog A2], the inhibition (in general, the change of the read-out against control, counted positive when it falls) at 10 pM in data set [1] (0.01 nM, read-out: Percent inhibition of ACE) worked out at 44.7 ± 3.85%. For the same molecule, the inhibition at 20 pM in data set [1] (0.02 nM, read-out: Percent inhibition of ACE) is 53.2 ± 5.73%. For the same molecule, in data set [1] (setting [3]), the inhibition at 0.0002 µM came out at 75.1 ± 4.66%, the inhibition at 0.0004 µM was found to be 77.8 ± 3.21%, the inhibition at 0.0006 µM stood at 81.7 ± 6.09% and the inhibition at 0.0008 µM came to 84 ± 5.11%. Moreover, the inhibition at 0.001 µM in data set [1] (setting [3]) came to 84.5 ± 4.52%. The half-inhibitory concentration (IC50) – broadly, the concentration that gives 50% inhibition – in data set [1] was 0.017 ± 0.009 nM. For the same molecule, the “ACE inhibition activity, in words” value in data set [1] (compared with other analogs and Fosinopril) is recorded as “highest ACE inhibition activity”.

For `CCC(=O)O[C@@H](O[P@](=O)(CCCCc1ccccc1)CC(=O)N1C[C@H](C2CCCCC2)C[C@H]1C(=O)O)C(C)C` [Fosinopril], the inhibition at 0.0001 µM in data set [1] (0.1 nM, read-out: Percent inhibition of ACE) is 44.1 ± 4.35%. For the same molecule, in data set [1] (setting [3]), the inhibition at 0.0002 µM was 63 ± 6.01%, the inhibition at 0.0004 µM came to 68.7 ± 3.99%, the inhibition at 0.0006 µM worked out at 73 ± 4.76% and the inhibition at 0.0008 µM came to 88.2 ± 5.2%. In data set [1] (setting [3]), the inhibition at 0.001 µM was 89.1 ± 3.82%. The molecule also had a 50% inhibitory concentration (IC50) in data set [1] of 0.143 ± 0.012 nM.

On to `O=C(O)[C@@H]1C[C@@H](C2CCCCC2)CN1C(=O)CP(=O)(O)CCCCc1ccccc1` [Fosinoprilat], for which, in data set [2], the Bioavailability entry is on record as “poor bioavailability”. In the data set with ACE, the “Potency relative to other ACE inhibitors” value is “more potent than captopril but less potent than enalaprilat”.

As for `C[C@H](N[C@@H](CCc1ccccc1)C(=O)O)C(=O)N1CCC[C@H]1C(=O)O` [enalaprilat], the Bioavailability entry in data set [2] was “poor bioavailability”.

(Values after paper PMC4207403, “Docking Studies and Biological Activity of Fosinopril Analogs” (International Journal of Medicinal Chemistry, 2014).)
